According to patent US4062835A, “Pentapeptides and methods for their production” (Parke, Davis & Company, priority 1976, dated 1977):
Where no end group is shown, it is not given here.

Tested on: LRF (luteinizing hormone release factor) induced luteinizing hormone (LH) release
Assay: In vitro test for LRF antagonist activity in rat anterior pituitary cell cultures
Assay type: cell-based
Excerpt: Pentapeptides of this invention were screened for LRF antagonist activity in vitro using rat anterior pituitary cell cultures as described by Vale et. al. [Endocrinology, 91, 562 (1972)]. The inhibition of LRF (luteinizing hormone release factor) induced luteinizing hormone (LH) release into the culture medium is the endpoint in this in vitro bioassay.

[1] = compound Molar Conc. 1 × 10^-7, LRF 3.5 × 10^-10, rat anterior pituitary cell cultures
[2] = compound Molar Conc. 3 × 10^-7, LRF 3.5 × 10^-10, rat anterior pituitary cell cultures
[3] = compound Molar Conc. 5 × 10^-8, LRF 3.5 × 10^-10, rat anterior pituitary cell cultures
[4] = compound Molar Conc. 6 × 10^-7, LRF 3.5 × 10^-10, rat anterior pituitary cell cultures
[5] = compound Molar Conc. 1 × 10^-6, LRF 2.5 × 10^-10, rat anterior pituitary cell cultures

## LRF: luteinizing hormone releasing factor, formed in the hypothalamus; stimulates secretion of luteinizing hormone; used as the stimulus in the bioassay (QHWSYGLRPG; ends and bridges not checked; UniProt P01148 24-33, looked up) [reference compound]
LRF alone, Molar Conc. 2.5 × 10^-10 (control of second experiment; saline control 7.70)
  LH Value: 36.96 ng/mL
LRF alone, Molar Conc. 3.5 × 10^-10 (control of first experiment; saline control 6.46)
  LH Value: 40.46 ng/mL

## N^α -t-Butoxycarbonyl-N^im -benzyl-L-histidyl-O-methyl-L-tyrosyl-O-benzyl-L-seryl-L-tryptophyl-D-alanine N-ethylamide
[1]
  % LH Release Inhibition: 69%
  LH Value: 17.2 ng/mL
[2]
  % LH Release Inhibition: 90%
  LH Value: 10.16 ng/mL
[3]
  % LH Release Inhibition: 56%
  LH Value: 21.61 ng/mL
[4]
  % LH Release Inhibition: 98%
  LH Value: 7.72 ng/mL

## N^α -t-Butoxycarbonyl-N^im -benzyl-L-histidyl-O-methyl-L-tyrosyl-O-benzyl-L-seryl-L-tryptophyl-D-alanine methyl ester
[5]
  % LH Release Inhibition: 69%
  LH Value: 16.89 ng/mL
